Assay: Subcutaneous trials in males: vomiting and tolerability
Assay type: in vivo, human
Settings: intramuscular administration, males

Cc1nccn1CC1CCc2c(c3ccccc3n2C)C1=O (stereo not shown) [ondansetron, reference compound]
effect on bremelanotide-induced vomiting: Vomiting could be resolved
